The source of these data is US20240336556A1, “R-KETAMINE SALTS AND METHODS OF USE THEREOF” (Perception Neuroscience, Inc., priority 2021, published 2024).

Converted amounts (≈) assume the structure as drawn. Where two headings read alike, the source gives them in different places. Bounds are passed on as bounds.

Data set [1] is described as follows: Storage in a closed vial at ambient conditions, reanalysis by PXRD. The class given is physicochemical. The protocol:
Stoe Stadi P equipped with a Mythen1K Detector; Cu-Kα1 radiation; standard measurement conditions: transmission; 40 kV and 40 mA tube power; curved Ge monochromator; 0.02°2θ step size, 48 s step time, 1.5-50.5°2θ scanning range; detector mode: step scan; 1 °2θ detector step; standard sample preparation: 10 to 20 mg sample was placed between two acetate foils; sample holder: Stoe transmission sample holder; the sample was rotated during the measurement. All sample preparation and measurement was done in an ambient air atmosphere.

Data set [2] is described as follows: Precise solubility tests of R-ketamine fumarate salt Form A in aqueous media at adjusted pH (HPLC). As to conditions: for solubility: aqueous, equilibrated one day, HPLC.
Data set [3] is described as follows: Dynamic vapor sorption (DVS) and classification of hygroscopicity. The class given is physicochemical. As to conditions: for reversibility of water sorption: under the test conditions; for solid form of the sample after DVS: PXRD or FT-Raman on solid recovered after the DVS test. Here is the method:
DVS measurements were performed with an SPS11-100n “Sorptions Prüfsystem” from ProUmid (formerly “Projekt Messtechnik”), August-Nagel-Str. 23, 89079 Ulm (Germany). About 5-20 mg of sample were put into an aluminum sample pan. Humidity change rates of […] were used. The applied measurement program is described as follows:
The sample was placed on an aluminum or platinum holder on top of a microbalance and allowed to equilibrate at 50% RH before starting the pre-defined humidity programs: • (1) 2 h at 50% RH • (2) 50→0% RH (5%/h); 5 h at 0% RH • (3) 0→95% RH (5%/h); 5 h at 95% RH • (4) 95→0% RH (5%/h); 5 h at 0% RH • (5) 0→95% RH (5%/h); 5 h at 95% RH • (6) 95→50% RH (5%/h); 2 h at 50% RH
The hygroscopicity was classified based on the mass gain at 85% RH relative to the initial mass as follows: deliquescent (sufficient water adsorbed to form a liquid), very hygroscopic (mass increase of ≥15%), hygroscopic (mass increase <15% but ≥2%), slightly hygroscopic (mass increase <2% but ≥0.2%), or non-hygroscopic (mass increase <0.2%).

Data set [4] can be described thus: HPLC precise solubility determination of R-ketamine salts in water at 25° C., with pH of the saturated solution. As to conditions: for Initial pH / pH after 24 hours: saturated solution in water, pH determined at 24° C.; for solubility / solubility in water: 25° C.; for solubility: equilibrated one day, HPLC of the saturated solution, values marked * may be underestimated; for solubility in water: one day equilibration, HPLC. The protocol:
50 mg of R-ketamine saccharin salt was suspended in 0.5 mL of water, and the suspension was equilibrated (700 rpm) at 25° C. for one day. 10 to 15 mg of R-ketamine fumarate salt and R-ketamine oxalate salt were also equilibrated in 0.5 mL of water at 25° C. for one day.

The nature of data set [5]: Approximate solubility determination (small aliquots of solvent added to ~10 mg of solid, ambient conditions). Particulars: thermodynamic from solid, approximation. The format is physicochemical. Here is the method:
Approximate solubilities were determined for the R-ketamine free base. […] These values are only approximations.

The nature of data set [6]: Approximate solubility in 20% (w/w) aqueous (2-Hydroxypropyl)-Beta-cyclodextrin solution and in 20% (w/w) cyclodextrin in buffer pH 7, with pH of the solutions. As to conditions: for Approximate Solubility: ambient conditions, visual estimate. Here is the method:
These values were determined by adding small aliquots of solvent or solvent mixture to ˜10 mg of solid and shaking/sonicating for a short period of time at ambient conditions. The solubilities were estimated by visual observations. These values are only approximations. Table 20 summarized the obtained solubility values, and the pH of the resulting solutions.

The conditions of data set [7]: water, at 23° C.
[8] abbreviates: obtained solution in 20% (w/w) aqueous cyclodextrin, measured at 24° C.
Setting [9] is: obtained solution in 20% (w/w) cyclodextrin in buffer pH 7, measured at 24° C.
[10] abbreviates: DVS, above 70% relative humidity.

Turning to `CN[C@@]1(c2ccccc2Cl)CCCCC1=O.O=C(O)/C=C/C(=O)O` [R-ketamine fumarate salt Form B], in data set [1] (11 months, ambient condition), the “solid form after storage (PXRD)” value was “a mixture of the R-ketamine fumarate salt Form A and B (about 1:1)”.
One may read the solubility as the dissolved amount per volume that the medium holds. Turning to `CN[C@@]1(c2ccccc2Cl)CCCCC1=O.CN[C@@]1(c2ccccc2Cl)CCCCC1=O.O=C(O)/C=C/C(=O)O` [R-ketamine fumarate salt Form A], the solubility in data set [2] (pH 5.23, r.t.) is listed as 304 mg/mL; in data set [2] (pH 6.14, r.t.), 15.1 mg/mL; in data set [2] (pH 7.21, r.t.) it was 1.76 mg/mL; in data set [4] (water), 17.7* mg/mL. Besides, the “pH on dissolution in pure water” value in data set [2] (pure water, from approximate solubility tests) is reported as “about 5.7”. For the same compound, in data set [2] (water adjusted to pH 5, 6, 7, one day at 25° C.), the “dependence of aqueous solubility on pH” value is on record as “solubility rapidly deceases by increasing pH”. Moreover, the “reversibility of water sorption” value in data set [3] (DVS) is on record as “lost all its water when the humidity is scanned back to 0% r.h”. Besides, in data set [3], the “solid form of the sample after DVS” value is reported as “no change in the crystalline form was observed”. Moreover, the “Initial pH” value in data set [4] (after 3 h) is 4.1 (after 3 h). Besides, the “pH after 24 hours” value in data set [4] amounted to 4.1. Besides, the solubility in water result in data set [4] (water) is reported as “higher than the solubility of the R-ketamine saccharin salt”.
For `CN[C@@]1(c2ccccc2Cl)CCCCC1=O` [R-ketamine free base, (2R)-2-(2-chlorophenyl)-2-(methylamino)cyclohexan-1-one], the solubility in data set [5] (aqueous with cosolvent or surfactant or cyclodextrin, 20% (2-hydroxypropyl)-beta-cyclodextrin in water) lay in the range of 1.4 to 1.7 mg/mL (≈ 5.89 to 7.15 mM); in data set [5] (organic solvent or mixture, 1-propanol), 60 to 79 mg/mL (≈ 252 to 332 mM); in data set [5] (organic solvent or mixture, 2-propanol), 37 to 44 mg/mL (≈ 156 to 185 mM); in data set [5] (organic solvent or mixture, Acetone), 111 to 222 mg/mL (≈ 467 to 934 mM); in data set [5] (organic solvent or mixture, Acetonitrile) it was 89 to 133 mg/mL (≈ 374 to 559 mM); in data set [5] (organic solvent or mixture, Ethanol), 62 to 83 mg/mL (≈ 261 to 349 mM). Further, the solubility in data set [5] (organic solvent or mixture, Ethyl acetate) is 115 to 230 mg/mL (≈ 484 to 967 mM); in data set [5] (organic solvent or mixture, Heptane) it was 5 to 9 mg/mL (≈ 21 to 37.9 mM); in data set [5] (organic solvent or mixture, Methanol), 120 to 240 mg/mL (≈ 505 to 1010 mM); in data set [5] (organic solvent or mixture, THF) it was over 288 mg/mL; in data set [5] (Water), under 1 mg/mL; in data set [6] (20% (w/w) (2-hydroxypropyl)-beta-cyclodextrin in buffer pH 7, pH 7, aqueous with cosolvent or surfactant or cyclodextrin, thermodynamic from solid) it was 2 to 2.5 mg/mL (≈ 8.41 to 10.5 mM). Further, the solubility in data set [6] (aqueous with cosolvent or surfactant or cyclodextrin, thermodynamic from solid) was 1.5 to 1.7 mg/mL (≈ 6.31 to 7.15 mM). The pH is on record as 8.5 in data set [6] (setting [8]) and 7.1 in data set [6] (setting [9]).
Turning to `CN[C@@]1(c2ccccc2Cl)CCCCC1=O.O=C(O)C(O)C(O)C(=O)O` [R-ketamine D-tartrate salt Form C], the “pH of the suspension” value in data set [7] (after 24 hours of stirring) amounted to 3.42; in data set [7] (after one hour) it was 3.48. In addition, the water content reached entry in data set [3] (setting [10]) is on record as “about 8.3%”. Also, the “reversibility of water sorption” value in data set [3] (DVS) was “irreversible”.
Consider `CNC1(c2ccccc2Cl)CCCCC1=O.Cl` (centres unmarked) [R-ketamine hydrochloride salt, reference compound], for which the solubility result in data set [6] (aqueous 20% (2-hydroxypropyl)-beta-cyclodextrin solution) is listed as “*The solubility of the HCl R-ketamine salt was over 100 mg/mL in aqueous 20% (2-hydroxypropyl)-beta-cyclodextrin solution”.
For `CN[C@@]1(c2ccccc2Cl)CCCCC1=O.O=C1NS(=O)(=O)c2ccccc21` [R-ketamine saccharin salt], the entries for the “Approximate Solubility” value in data set [6] (20% (w/w) aqueous cyclodextrin) and in data set [6] (20% (w/w) cyclodextrin in buffer pH 7 solution) were 28~37 mg/mL and 26~35 mg/mL, respectively. Further, the results for the pH in data set [6] (setting [8]) and in data set [6] (setting [9]) were 5 and 6.3, respectively. Further, the hygroscopicity class entry in data set [3] (DVS) is “non-hygroscopic (non-hygroscopic (mass increase <0.2%))”. Moreover, the “solid form of the sample after DVS” value in data set [3] is reported as “no change in the solid form was observed”. The “Initial pH” value in data set [4] (after 1 h) is given as 4.2 (after 1 h). For the same compound, in data set [4], the “pH after 24 hours” value was 4.0. Also, in data set [4] (water), the solubility is 6.64 mg/mL. Also, in data set [4] (water), the solubility in water is on record as 6.6 mg/mL.
With `CN[C@@]1(c2ccccc2Cl)CCCCC1=O.O=C(O)C(O)C(O)C(=O)O` [R-ketamine D-tartrate salt Form B], the “solid form after storage (PXRD)” value in data set [1] (12 months, ambient conditions) is given as “corresponding to R-ketamine D-tartrate salt Form B”. Also, in data set [3] (setting [10]), the water content reached result is listed as “about 8.5%”. Moreover, the “reversibility of water sorption” value in data set [3] (DVS) was “irreversible”.
In the case of `CN[C@@]1(c2ccccc2Cl)CCCCC1=O.O=C(O)C(O)C(O)C(=O)O` [R-ketamine D-tartrate salt Form A], the “solid form after storage (PXRD)” value in data set [1] (13 months, ambient conditions) is “corresponding to R-ketamine D-tartrate salt Form A”. Further, the additional water uptake entry in data set [3] (setting [10]) is recorded as “about 3%”. Besides, the “reversibility of water sorption” value in data set [3] (DVS) is listed as “irreversible”.
For the compound `CN[C@@]1(c2ccccc2Cl)CCCCC1=O.O=C(O)C(O)C(O)C(=O)O` [R-ketamine D-tartrate salt Form D], the additional water absorbed result in data set [3] (DVS, at high relative humidity) is on record as “About 0.4%”.
`CN[C@@]1(c2ccccc2Cl)CCCCC1=O.O=C(O)C(=O)O` [R-ketamine oxalate salt]: the hygroscopicity class result in data set [3] (DVS) is reported as “very hygroscopic (very hygroscopic (mass increase of ≥15%))”. The “solid form of the sample after DVS” value in data set [3] is on record as “dramatically loss of crystallinity was observed”. Besides, in data set [4] (after 3 h), the “Initial pH” value is recorded as 5.6 (after 3 h). Moreover, the “pH after 24 hours” value in data set [4] stood at 5.7. Also, in data set [4] (water), the solubility is given as 19.2* mg/mL and the solubility in water entry is recorded as “higher than the solubility of the R-ketamine saccharin salt”. In addition, the “pH of the saturated solution” value in data set [4] (water, after one day stirring, pH measured at 24° C.) came to 5.7.
